Data set [1] in a line: Solubility of 4′-epidaunorubicin hydrochloride (stated in words, no method given). The format is physicochemical.
The nature of data set [2]: Thermal stability / decomposition of 4′-epidaunorubicin hydrochloride crystals (thermogravimetric analysis). Particulars: for temperature at which the product decomposed: crystals obtained in the example. The format is physicochemical. From the text:
FIG. 2 is a graph showing the thermogravimetric analysis (TGA) of 4′-epidaunorubicin hydrochloride. The data were obtained using the instrument NETZSCH TG 209 (sample mass: […], range: 24.0/10.0 (K/min)/250.0, crucible: Al2O3).

For `COc1cccc2c1C(=O)c1c(O)c3c(c(O)c1C2=O)C[C@@](O)(C(C)=O)C[C@@H]3O[C@H]1C[C@H](N)[C@@H](O)[C@H](C)O1.Cl` [4′-epidaunorubicin hydrochloride], in data set [1] (amorphous precipitate, solvent not stated), the “solubility of amorphously precipitated material” value is “only purely soluble”. The solubility in methanol entry in data set [1] (methanol, crystalline form versus amorphous form, hydrochloride) is “improved solubility in methanol”. The thermal stability result in data set [2] (crystalline form) is listed as “high thermal stability”. In addition, the “temperature at which the product decomposed” value in data set [2] (listed as Example 1, hydrochloride) came out at 191 °C; in data set [2] (listed as Example 2, hydrochloride), 191 °C; in data set [2] (listed as Example 3, hydrochloride), 190 °C; in data set [2] (listed as Example 4, hydrochloride), 190 °C.
